Structures can show the parent of a compound that is named as a salt.
Molecular target: human full length recombinant Mps-1 kinase (Homo sapiens (Human), UniProt P33981)
Experiment: Mps-1 Kinase Assay (TR-FRET)
Assay type: biochemical
Settings: 10 μM ATP, 1 μM biotinylated peptide substrate, 60 min at 22° C., read-out: Mps-1 Inhibition, IC50 in M
Procedure: The human kinase Mps-1 phosphorylates a biotinylated substrate peptide. Detection of the phosphorylated product is achieved by time-resolved fluorescence resonance energy transfer (TR-FRET) from Europium-labelled anti-phospho-Serine/Threonine antibody as donor to streptavidin labelled with cross-linked allophycocyanin (SA-XLent) as acceptor. Compounds are tested for their inhibition of the kinase activity.
N-terminally GST-tagged human full length recombinant Mps-1 kinase (purchased from Invitrogen, Karslruhe, Germany, cat. no PV4071) was used. As substrate for the kinase reaction a biotinylated peptide of the amino-acid sequence […] (C-terminus in amide form, purchased from Biosynthan GmbH, Berlin) was used.
The concentration of Mps-1 in the assay was adjusted to the activity of the enzyme lot and was chosen appropriate to have the assay in the linear range, typical enzyme concentrations were in the range of about 1 nM (final conc. in the 5 μl assay volume).
The resulting mixture was incubated 1 h at 22° C. to allow the binding of the phosphorylated peptide to the anti-phospho(Ser/Thr)-Europium-antibody. Subsequently the amount of phosphorylated substrate was evaluated by measurement of the resonance energy transfer from the Europium-labelled anti-phospho(Ser/Thr) antibody to the Streptavidin-XLent.

human full length recombinant Mps-1 kinase, sequence (P33981 whole entry): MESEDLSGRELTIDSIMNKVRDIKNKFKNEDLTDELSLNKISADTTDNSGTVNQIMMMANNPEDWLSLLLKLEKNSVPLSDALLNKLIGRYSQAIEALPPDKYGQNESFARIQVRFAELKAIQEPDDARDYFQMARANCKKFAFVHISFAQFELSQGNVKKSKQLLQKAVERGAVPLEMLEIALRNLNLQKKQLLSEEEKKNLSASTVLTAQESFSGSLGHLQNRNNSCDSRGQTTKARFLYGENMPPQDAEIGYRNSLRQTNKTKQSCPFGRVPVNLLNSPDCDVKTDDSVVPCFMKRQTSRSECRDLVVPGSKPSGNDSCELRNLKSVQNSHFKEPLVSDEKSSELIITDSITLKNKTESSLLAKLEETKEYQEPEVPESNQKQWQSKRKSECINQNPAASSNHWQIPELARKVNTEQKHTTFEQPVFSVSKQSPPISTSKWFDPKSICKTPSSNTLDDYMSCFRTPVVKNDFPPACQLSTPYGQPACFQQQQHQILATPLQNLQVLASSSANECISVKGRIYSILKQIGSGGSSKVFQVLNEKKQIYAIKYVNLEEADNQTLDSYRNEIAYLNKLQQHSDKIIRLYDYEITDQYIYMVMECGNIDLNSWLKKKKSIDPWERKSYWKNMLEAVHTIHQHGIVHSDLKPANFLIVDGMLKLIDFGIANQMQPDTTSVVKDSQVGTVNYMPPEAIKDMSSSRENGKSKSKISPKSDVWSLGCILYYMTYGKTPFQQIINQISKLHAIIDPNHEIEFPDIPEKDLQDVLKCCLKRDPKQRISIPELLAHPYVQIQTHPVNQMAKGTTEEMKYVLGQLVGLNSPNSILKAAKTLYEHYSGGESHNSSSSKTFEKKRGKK

IC50	SMILES
5.56 nM	COc1cc(C(=O)N2CCOCC2)ccc1Nc1nc2ccc(-c3ccc(NC(=O)CC4CC4)cc3)cn2n1 [Example 01.01, 2-cyclopropyl-N-[4-(2-{[2-methoxy-4-(morpholin-4-ylcarbonyl)phenyl]amino}[,2]-triazolo[1,5-a]pyridin-6-yl)phenyl]acetamide]
≤ 1 nM	CCOc1cc(C(=O)N2CCOCC2)ccc1Nc1nc2ccc(-c3ccc(NC(=O)CC4CC4)cc3)cn2n1 [Example 01.02, 2-cyclopropyl-N-[4-(2-{[2-ethoxy-4-(morpholin-4-ylcarbonyl)phenyl]amino}[,2]-triazolo[1,5-a]pyridin-6-yl)phenyl]acetamide]
6.02 nM	COc1cc(N2CCN(C)CC2)ccc1Nc1nc2ccc(-c3ccc(NC(=O)CC4CC4)cc3)cn2n1 [Example 01.03, 2-cyclopropyl-N-[4-(2-{[2-methoxy-4-(4-methylpiperazin-1-yl)phenyl]amino}[,2]-triazolo[1,5-a]pyridin-6-yl)phenyl]acetamide trifluoroacetate]
≤ 1 nM	CCOc1cc(C(=O)N2CCOCC2)ccc1Nc1nc2ccc(-c3ccc(NC(=O)Cc4ccc(F)cc4)cc3)cn2n1 [Example 02.02, N-[4-(2-{[2-ethoxy-4-(morpholin-4-ylcarbonyl)phenyl]amino}[,2]-triazolo[1,5-a]pyridin-6-yl)phenyl]-2-(4-fluorophenyl)acetamide]
1.04 nM	COc1cc(C2=NC(C)(C)CO2)ccc1Nc1nc2ccc(-c3ccc(NC(=O)Cc4ccc(F)cc4)cc3)cn2n1 [Example 02.03, N-[4-(2-{[4-(4,4-dimethyl-4,5-dihydro-1,3-oxazol-2-yl)-2-methoxyphenyl]amino}[,2]-triazolo[1,5-a]pyridin-6-yl)phenyl]-2-(4-fluorophenyl)acetamide]
≤ 1 nM	COc1cc(C(=O)N2CCN(C)CC2)ccc1Nc1nc2ccc(-c3ccc(NC(=O)Cc4ccc(F)cc4)cc3)cn2n1 [Example 02.04, 2-(4-fluorophenyl)-N-{4-[2-({2-methoxy-4-[(4-methylpiperazin-1-yl)carbonyl]phenyl}amino)[,2]triazolo[1,5-a]pyridin-6-yl]phenyl}acetamide]
≤ 1 nM	CCOc1cc(C(=O)N2CCN(C(=O)OC(C)(C)C)CC2)ccc1Nc1nc2ccc(-c3ccc(NC(=O)Cc4ccc(F)cc4)cc3)cn2n1 [Example 02.05, tert-butyl 4-(3-ethoxy-4-{[6-(4-{[(4-fluorophenyl)acetyl]amino}phenyl)[,2]triazolo[1,5-a]pyridin-2-yl]amino}benzoyl)piperazine-1-carboxylate]
≤ 1 nM	CCOc1cc(C(=O)N2CCNCC2)ccc1Nc1nc2ccc(-c3ccc(NC(=O)Cc4ccc(F)cc4)cc3)cn2n1 [Example 02.06, N-[4-(2-{[2-ethoxy-4-(piperazin-1-ylcarbonyl)phenyl]amino}[,2]-triazolo[1,5-a]pyridin-6-yl)phenyl]-2-(4-fluorophenyl)acetamide]
≤ 1 nM	CCOc1cc(C(=O)N2CCN(CC3CC3)CC2)ccc1Nc1nc2ccc(-c3ccc(NC(=O)Cc4ccc(F)cc4)cc3)cn2n1 [Example 02.07, N-(4-{2-[(4-{[4-(cyclopropylmethyl)piperazin-1-yl]carbonyl}-2-ethoxyphenyl)amino][,2]triazolo[1,5-a]pyridin-6-yl}phenyl)-2-(4-fluorophenyl)acetamide]
1.05 nM	COc1cc(N2CCN(C)CC2)ccc1Nc1nc2ccc(-c3ccc(NC(=O)Cc4ccc(F)cc4)cc3)cn2n1 [Example 02.08, 2-(4-fluorophenyl)-N-[4-(2-{[2-methoxy-4-(4-methylpiperazin-1-yl)phenyl]amino}[,2]-triazolo[1,5-a]pyridin-6-yl)phenyl]acetamide trifluoroacetate]
≤ 1 nM	O=C(Cc1ccc(F)cc1)Nc1ccc(-c2ccc3nc(Nc4ccc(C(=O)N5CCOCC5)cc4OC(F)(F)F)nn3c2)cc1 [Example 02.10, 2-(4-fluorophenyl)-N-[4-(2-{[4-(morpholin-4-ylcarbonyl)-2-(trifluoromethoxy)phenyl]amino}[,2]-triazolo[1,5-a]pyridin-6-yl)phenyl]acetamide]
